Earlier results as cited in patent US11793981B2, “Microneedle device for control of thyroid hormone levels” (priority 2020, dated 2023).
Read-outs that look alike come from different tables or passages of the source.

Legend:
hypothyroidism = details: LT4-treated patients, despite supposedly adequate LT4 treatment
[1] = pregnancy
[2] = hypothyroid patients receiving LT4

Row | half-life (oral LT3) | SMILES | patients with residual symptoms of hypothyroidism and lower well-being (hypothyroidism) | half-life (oral LT4) | crossing of the placenta [1] | lower serum levels of T3 [2]
1 | hours to two days | N[C@@H](Cc1cc(I)c(Oc2ccc(O)c(I)c2)c(I)c1)C(=O)O [LT3, liothyronine] | – | – | – | –
2 | – | N[C@@H](Cc1cc(I)c(Oc2cc(I)c(O)c(I)c2)c(I)c1)C(=O)O [LT4, levothyroxine] | 10-20% | about seven | crosses the placenta | about 10%
